Patent publication US10947252B2, “Inhibitors of KEAP1-Nrf2 protein-protein interaction” (Janssen Pharmaceutica NV, priority 2018, dated 2021)

Assays:
[1] = biological target: Kelch domain of human KEAP1 (321-624 aa) (Homo sapiens (Human), UniProt Q14145); test: KEAP1 KELCH ThermoFluor binding assay; conditions: KEAP Kelch […], 1,8-ANS, pH 7.0, average of results obtained, read-out: Tf Kd;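 further: Ligand-induced melting temperature shift of E. coli-expressed KEAP1 Kelch protein, Kd estimated from concentration-response curves of ΔTm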
Sequence of Kelch domain of human KEAP1 (321-624 aa) (Q14145 321-624): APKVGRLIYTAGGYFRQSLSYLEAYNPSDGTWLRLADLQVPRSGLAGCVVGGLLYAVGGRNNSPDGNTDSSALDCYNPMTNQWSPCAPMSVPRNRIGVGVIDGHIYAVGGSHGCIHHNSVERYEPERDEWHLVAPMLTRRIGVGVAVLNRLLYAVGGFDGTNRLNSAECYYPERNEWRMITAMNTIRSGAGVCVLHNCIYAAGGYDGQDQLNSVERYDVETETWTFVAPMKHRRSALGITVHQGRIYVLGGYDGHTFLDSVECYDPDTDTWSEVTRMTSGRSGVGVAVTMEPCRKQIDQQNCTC

[2] = tested on: Glo-Response ARE-luc2P HEK293 cell line; test: ARE luciferase reporter cell-based assay; conditions: Homo sapiens, HEK293, 24 h, average of results obtained;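 further: luciferase signal tracks Nrf2 activation of the ARE once compounds disrupt KEAP1-Nrf2 binding, read with One-Glo reagent, DMSO serving as low control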

Cc1ccc([C@H](c2ccn3c(C(F)F)nnc3c2C)C(C)(C)C(=O)O)nc1CN1CC2(CC2)Oc2nc(OCCN3CCCCC3)c(C)cc2S1(=O)=O (single isomer, unassigned) [Example 357, (*R)-3-(3-(difluoromethyl)-8-methyl-[1,2,4]triazolo[4,3-a]pyridin-7-yl)-2,2-dimethyl-3-(5-methyl-6-((8′-methyl-1′,1′-dioxido-7′-(2-(piperidin-1-yl)ethoxy)spiro[cyclopropane-1,4′-pyrido[2,3-b][1,4,5]oxathiazepin]-2′(3′H)-yl)methyl)pyridin-2-yl)propanoic Acid]
Kd [1]: < 1 nM | EC50 [2]: 452 nM

Cc1ccc([C@@H](c2ccn3c(C(F)F)nnc3c2C)C(C)(C)C(=O)O)nc1CN1CC2(CC2)Oc2nc(OCCN3CCCC3)c(C)cc2S1(=O)=O (single isomer, unassigned) [Example 358, (*S)-3-(3-(Difluoromethyl)-8-methyl-[1,2,4]triazolo[4,3-a]pyridin-7-yl)-2,2-dimethyl-3-(5-methyl-6-((8′-methyl-1′,1′-dioxido-7′-(2-(pyrrolidin-1-yl)ethoxy)spiro[cyclopropane-1,4′-pyrido[2,3-b][1,4,5]oxathiazepin]-2′(3′H)-yl)methyl)pyridin-2-yl)propanoic Acid]
Kd [1]: 4460 nM | EC50 [2]: 23.3 nM

Cc1ccc([C@H](c2ccn3c(C(F)F)nnc3c2C)C(C)(C)C(=O)O)nc1CN1CC2(CC2)Oc2nc(OCCN3CCCC3)c(C)cc2S1(=O)=O (single isomer, unassigned) [Example 359, (*R)-3-(3-(Difluoromethyl)-8-methyl-[1,2,4]triazolo[4,3-a]pyridin-7-yl)-2,2-dimethyl-3-(5-methyl-6-((8′-methyl-1′,1′-dioxido-7′-(2-(pyrrolidin-1-yl)ethoxy)spiro[cyclopropane-1,4′-pyrido[2,3-b][[,4,5]oxathiazepin]-2′(3′H)-yl)methyl)pyridin-2-yl)propanoic Acid]
Kd [1]: < 1 nM | EC50 [2]: 1230 nM

Cc1ccc([C@H](c2ccn3c(C(F)(F)F)nnc3c2C)C(C)(C)C(=O)O)cc1CN1CC2(CCOCC2)Oc2nc(OCCN3CCC(F)(F)CC3)ccc2S1(=O)=O (single isomer, unassigned) [Example 360, (*R)-3-(3-((7′-(2-(4,4-Difluoropiperidin-1-yl)ethoxy)-1′,1′-dioxido-2,3,5,6-tetrahydrospiro[pyran-4,4′-pyrido[2,3-b][1,4,5]oxathiazepin]-2′(3′H)-yl)methyl)-4-methylphenyl)-2,2-dimethyl-3-(8-methyl-3-(trifluoromethyl)-[1,2,4]triazolo[4,3-a][pyridine-7-yl)propanoic Acid]
Kd [1]: < 1 nM | EC50 [2]: 9.3 nM

Cc1ccc([C@H](c2ccn3c(C(F)(F)F)nnc3c2C)C(C)(C)C(=O)O)cc1CN1CC2(CCOCC2)Oc2nc(NC3CC(O)C3)c(C)cc2S1(=O)=O (single isomer, unassigned) [Example 361, (*R)-3-(3-((7′-(((1R,3R)-3-Hydroxycyclobutyl)amino)-8′-methyl-1′,1′-dioxido-2,3,5,6-tetrahydrospiro[pyran-4,4′-pyrido[2,3-b][1,4,5]oxathiazepin]-2′(3′H)-yl)methyl)-4-methylphenyl)-2,2-dimethyl-3-(8-methyl-3-(trifluoromethyl)-[1,2,4]triazolo[4,3-a]pyridine-7-yl)propanoic Acid]
Kd [1]: < 1 nM | EC50 [2]: 60.4 nM

Cc1ccc([C@H](c2ccn3c(C(F)(F)F)nnc3c2C)C(C)(C)C(=O)O)cc1CN1CC2(CCOCC2)Oc2nc(N[C@H](C)CN3CCOCC3)c(C)cc2S1(=O)=O (single isomer, unassigned) [Example 362, (*R)-2,2-Dimethyl-3-(4-methyl-3-((8′-methyl-7′-(((R-1-morpholinopropan-2-yl)amino)-1′,1′-dioxido-2,3,5,6-tetrahydrospiro[pyran-4,4′-pyrido[2,3-b][1,4,5]oxathiazepin]-2′(3′H)-yl)methyl)phenyl)-3-(8-methyl-3-(trifluoromethyl)-[1,2,4]triazolo[4,3-a]pyridine-7-yl)propanoic Acid]
Kd [1]: < 1 nM | EC50 [2]: 20.5 nM
